Source: PubChem BioAssay (NCI)
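All cell lines were grown in 96-well plates and treated with compound for 48 hours. GI50 marks 50% less growth. At the TGI there is no net growth.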

How the values were obtained:
Assay in all cases: inhibition of tumour cell growth, NCI panel, 48 h
[1] = system: OVCAR-4 ovarian
[2] = system: HOP-92 NSCLC
[3] = system: SK-MEL-2 melanoma
[4] = system: ACHN renal
[5] = system: U251 CNS
[6] = system: OVCAR-8 ovarian
[7] = system: SF-539 CNS
[8] = system: NCI-H23 lung
[9] = system: NCI-H522 lung
[10] = system: OVCAR-3 ovarian

SMILES	TGI [1] [µM]	TGI [2] [µM]	TGI [3] [µM]	TGI [4] [µM]	TGI [5] [µM]	TGI [6] [µM]	TGI [7] [µM]	TGI [8] [µM]	TGI [9] [µM]	TGI [10] [µM]	GI50 [5] [µM]	GI50 [10] [µM]
Cn1ncc2c(Nc3cccc(Cl)c3)nc(Nc3cccc(Cl)c3)nc21	47.6	44.7	41.7	29.2	52.1	> 100	52	57.1	39.1	> 66.6		
CCOC(=O)C(Cc1cn(C(C)=O)c2ccccc12)P(=O)(OCC)OCC (stereo not drawn)	> 100	> 100	> 100	> 100	> 100	> 100		> 100	> 100	> 100		
CC(C)C(=O)CC(c1ccc(Cl)cc1)N1N=C(C(C)C)CC1c1ccc(Cl)cc1 (stereo not drawn)		> 100	> 92.2	> 100	> 100	> 65.8	> 42.7	> 100	> 100	> 100	53.3	45.6
N#CCCN(CCC#N)c1ccc(/C=C(\NC(=O)c2cc([N+](=O)[O-])ccc2Cl)C(=O)Nc2ccccc2)cc1	> 100	> 100	> 100	> 100	> 100	> 100	> 100	> 100	> 100	> 100		
COc1ccc(C(O)(c2ccccc2)c2nccc3ccccc23)cc1 (stereo not drawn)	> 100			> 100	> 100	> 100		> 100	30.7	6.32		
Cc1[nH]c(=O)[nH]c(=O)c1/C=C/C(=O)NC(CO)CS(=O)Cc1ccccc1 (stereo not drawn)		> 300	> 300		> 300	> 300	> 300	> 300	> 300	> 300		
O=C(O)CCc1nc2ccccc2[nH]1	> 100	> 100	> 100	> 100	> 100	> 100	> 100	> 100	> 100	> 100		
C/C(=N\NC(=S)N(C)C)c1nc2ncccc2[nH]1	10.6	0.928	> 100	14.7	> 100	> 100	5.11		91.7			
